Measurements reported in paper PMC8998618, “A Pharmacokinetic and Metabolism Study of the TRPC6 Inhibitor SH045 in Mice by LC-MS/MS” (International Journal of Molecular Sciences, 2022).
Where two headings read alike, the source gives them in different places.

Assay: tissue distribution after single and repeated administration
Assay type: in vivo, mice
Details: for concentration at 24 h: 20 mg/kg, mean ± SEM
Procedure: Via heparin-coated catheters a maximum of 50 µL blood was collected from the tail vein at 0.25, 0.5, 1, 2, 3, 4, 6, 8, or 24 h after administration and immediately centrifuged at 4000× g at 4 °C for 10 min. For repeated administration 20 mg/kg BW SH045 were administered at 8:00 a.m. on five consecutive days, once a day. Blood was taken 1 h and 24 h after drug administration. Tissue samples were harvested from isoflurane-euthanized animals at indicated time points. Mice were transcardially perfused with PBS and dissected tissues were washed to remove remaining blood. Plasma and tissue samples were stored at −80 °C until analysis. Urine was collected by bladder puncture at indicated time points.
For tissue analysis, homogenates (10% in phosphate-buffered saline, PBS) were prepared. Homogenate, plasma, and urine were mixed with IS and extracted with ice-cold ACN, centrifuged, filtered and stored in the autosampler at 6 °C until analysis in duplicates by LC-MS/MS (details in Supplementary Materials SM4).
Larixyl-N-methylcarbamate ((1S,4S,4aR,8aS)-4-((S)-3-hydroxy-3-methylpent-4-en-1-yl)-4a,8,8-trimethyl-3-methylenedeca-hydro-naphthalen-1-yl methylcarbamate, SH045, TRPC6 inhibitor) was synthesized as described by Häfner et al. [1]. (+)-Larixol (internal standard, IS) was isolated from Larix decidua turpentine [2]. Kolliphor® EL was obtained from Caelo (Hilden, Germany). Acetonitrile (ACN), water, and formic acid (LC -MS grade each) were purchased from Fisher Scientific (Schwerte, Germany). Testo sterone, 4-nitrophenol, β-nicotinamide adenine dinucleotide 2′ -phosphate reduced tetrasodium salt hydrate (β-NADPH), uridine 5′-diphosphoglucuronic acid ammonium salt (UDPGA), pilocarpine, ticlopidine, quercetin, sulfaphenazole, fluvoxamine, quinidine, 4-methyl pyrazole, ketoconazole, alamethicin and Dulbecco’s phosphate-buffered saline (DPBS, pH 7.4) were obtained from Merck (Darmstadt, Germany). Ciprofloxacin was purchased from Bayer AG (Leverkusen, Germany). Liver microsomes from mice (CD-1, male, MLM) and human (pooled: 50 donors, HLM) were obtained from Fisher Scientific (Gibco, protein concentration: 20 mg/mL respectively). Syringe filters (Phenex, regenerated cellulose, pore-size 0.2 μm) were purchased from Phenomenex (Aschaffenburg, Germany) and centrifugal filter units (30 kDa) from Merck Millipore […]
SM2 Quantification of SH045 by HPLC and tandem mass spectrometric methods (LC-MS/MS) In brief, chromatographic separation was achieved using a Zorbax Eclipse XDB-C8 column (100 × 3.0 mm, 3.5 μm 80 Å, Agilent Technologies) with linear gradient elution using water and ACN, each with 0.1 % formic acid as additive, during a total run time of 20 min. For quantification (+)-larixol was used as IS. MS detection was achieved by multiple reaction monitoring (MRM) scan mode for SH045 (m/z 364.3/289.3) and IS (m/z 307.2/151.2), respectively. Further conditions and parameters were set as reported previously [3]. Freshly prepared calibration samples for SH045 in plasma and tissue comprised eight concentration levels analyzed in duplicates (2, 5, 10, 100, 200, 800, 1200 and 1600 ng/mL). For metabolism studies in microsomes, SH045 was dissolved in pure DMSO. […]
All analyses for metabolite identification included comparative measurements of appropriate control samples in order to avoid false-positive results.
SM3 Histopathological examination of tissue repeatedly exposed to SH045 Liver, kidney and lung were collected after repeated administration for inspection for histopathological changes, fixed in 4% paraformaldehyde solution and embedded in paraffin. Tissue slices (6 µm) of three animals either of untreated controls or such assigned to repeated administration of SH045 were deparaffinized and hematoxylin and eosin-stained. At least 5 slices per animal and tissue were microscopically examined using a light microscope (Zeiss, […]
SM4 Preparation of samples for analysis of SH045 and its metabolites by LC-MS/MS […]

In the case of `C=C[C@@](C)(O)CC[C@H]1C(=C)C[C@H](OC(=O)NC)[C@H]2C(C)(C)CCC[C@]12C` [SH045, (1S,4S,4aR,8aS)-4-((S)-3-Hydroxy-3-methylpent-4-en-1-yl)-4a,8,8-trimethyl-3-methylenedecahydronaphthalen-1-yl methylcarbamate], the “entry into the brain” value (20 mg/kg i.v.) is reported as “entered the brain”, the “drug accumulation in tissues after repeated administration” value (20 mg/kg i.v. five times once a day) is reported as “no hints for drug accumulation” and the concentration at 24 h (male, C57BL/6, mouse, brain, iv, 24 h after repeated (5 days, once a day) 20 mg/kg BW i.v., read-out: Concentration, Brain) is reported as 19.6 ± 5.5 ng/g. The concentration at 24 h (male, C57BL/6, mouse, brain, iv, 24 h after single (1×) 20 mg/kg BW i.v., read-out: Concentration, Brain) was 14.8 ± 7.6 ng/g, the concentration at 24 h (male, C57BL/6, mouse, fat, iv, 24 h after repeated (5 days, once a day) 20 mg/kg BW i.v., read-out: Concentration, Fat) was 369 ± 50 ng/g and the concentration at 24 h (male, C57BL/6, mouse, fat, iv, 24 h after single (1×) 20 mg/kg BW i.v., read-out: Concentration, Fat) was 333 ± 61.2 ng/g. It also gave a concentration at 24 h (male, C57BL/6, mouse, kidney, iv, 24 h after repeated (5 days, once a day) 20 mg/kg BW i.v., read-out: Concentration, Kidney) of 17.8 ± 4.4 ng/g, a concentration at 24 h (male, C57BL/6, mouse, kidney, iv, 24 h after single (1×) 20 mg/kg BW i.v., read-out: Concentration, Kidney) of 14.8 ± 5.9 ng/g and a concentration at 24 h (male, C57BL/6, mouse, liver, iv, 24 h after repeated (5 days, once a day) 20 mg/kg BW i.v., read-out: Concentration, Liver) of 17.5 ± 4.6 ng/g. The concentration at 24 h (male, C57BL/6, mouse, liver, iv, 24 h after single (1×) 20 mg/kg BW i.v., read-out: Concentration, Liver) was 14.2 ± 5.2 ng/g, the Kp (male, C57BL/6, mouse, lung, iv, 20 mg/kg BW, after i.v. administration, read-out: first-pass uptake into the lung relative to respective plasma concentration) was about 20 and the concentration at 24 h (male, C57BL/6, mouse, lung, iv, 24 h after repeated (5 days, once a day) 20 mg/kg BW i.v., read-out: Concentration, Lung) was 2390 ± 1020 ng/g. The concentration at 24 h (male, C57BL/6, mouse, lung, iv, 24 h after single (1×) 20 mg/kg BW i.v., read-out: Concentration, Lung) was 2170 ± 414 ng/g.
